Our source for the EC50 and S values is ChEMBL document CHEMBL1131684, “Preparation of amino acid conjugates of betulinic acid with activity against human melanoma” (Bioorg Med Chem Lett, 1999).

Values after ≈ are worked out from the molar mass of the structure shown.

One series has as its system KB. The series is described as follows: In vitro cytotoxicity (antitumor activity) against human epidermoid carcinoma of mouth cell line (KB). It counts as functional. The note with it: read-out: ED50 (the source's name).
A further series has as its system SK-MEL-2. The series is described as follows: In vitro cytotoxicity (antitumor activity) against human melanoma (MEL-2) cell lines. It counts as functional. The note with it: read-out: ED50 (the source's name).
Series [1] can be described thus: Water solubility of the compound. It counts as ADME. The note with it: buffer.

Turning to `C=C(C)[C@@H]1CC[C@]2(C(=O)N[C@H](C(=O)OC)[C@@H](C)CC)CC[C@]3(C)[C@H](CC[C@@H]4[C@@]5(C)CC[C@H](O)C(C)(C)[C@@H]5CC[C@]43C)[C@@H]12`, the EC50 in the series on KB and with SK-MEL-2 was over 20 µg/mL each time.
Regarding `C=C(C)[C@@H]1CC[C@]2(C(=O)N[C@H](C(=O)O)[C@@H](C)CC)CC[C@]3(C)[C@H](CC[C@@H]4[C@@]5(C)CC[C@H](O)C(C)(C)[C@@H]5CC[C@]43C)[C@@H]12`, the EC50 with KB and in the series on SK-MEL-2 was over 20 µg/mL in each case.
For `C=C(C)[C@@H]1CC[C@]2(C(=O)N[C@@H](Cc3ccccc3)C(=O)OC)CC[C@]3(C)[C@H](CC[C@@H]4[C@@]5(C)CC[C@H](O)C(C)(C)[C@@H]5CC[C@]43C)[C@@H]12`, the EC50 in the series on KB is over 20 µg/mL; in the series with SK-MEL-2, 9 µg/mL (≈ 14.6 µM). In addition, in series [1], the S turned out to be 5 Dilution factor.
For `C=C(C)[C@@H]1CC[C@]2(C(=O)N[C@@H](CC(=O)OC)C(=O)OC)CC[C@]3(C)[C@H](CC[C@@H]4[C@@]5(C)CC[C@H](O)C(C)(C)[C@@H]5CC[C@]43C)[C@@H]12`, the EC50 in the series on KB and with SK-MEL-2 was over 20 µg/mL each time.
On to `C=C(C)[C@@H]1CC[C@]2(C(=O)N[C@@H](CCC(=O)O)C(=O)O)CC[C@]3(C)[C@H](CC[C@@H]4[C@@]5(C)CC[C@H](O)C(C)(C)[C@@H]5CC[C@]43C)[C@@H]12`, for which the EC50 with KB and in the series on SK-MEL-2 was over 20 µg/mL throughout.
On to `C=C(C)[C@@H]1CC[C@]2(C(=O)NCC(=O)OC)CC[C@]3(C)[C@H](CC[C@@H]4[C@@]5(C)CC[C@H](O)C(C)(C)[C@@H]5CC[C@]43C)[C@@H]12`, for which the EC50 is over 20 µg/mL with KB and 10.2 µg/mL (≈ 19.3 µM) in the series with SK-MEL-2. The same compound gave a S in series [1] of 50 Dilution factor.
For the compound `C=C(C)[C@@H]1CC[C@]2(C(=O)N[C@@H](Cc3c[nH]c4ccccc34)C(=O)OC)CC[C@]3(C)[C@H](CC[C@@H]4[C@@]5(C)CC[C@H](O)C(C)(C)[C@@H]5CC[C@]43C)[C@@H]12`, the EC50 in the series on KB and in the series on SK-MEL-2 was over 20 µg/mL in each case.
Take `C=C(C)[C@@H]1CC[C@]2(C(=O)N3CCC[C@H]3C(=O)O)CC[C@]3(C)[C@H](CC[C@@H]4[C@@]5(C)CC[C@H](O)C(C)(C)[C@@H]5CC[C@]43C)[C@@H]12`: the results for the EC50 in the series on KB and with SK-MEL-2 were over 20 µg/mL and 13.1 µg/mL (≈ 23.7 µM), respectively. The S in series [1] was determined as 20 Dilution factor.
The corresponding values for `C=C(C)[C@@H]1CC[C@]2(C(=O)N[C@H](C(=O)O)C(C)C)CC[C@]3(C)[C@H](CC[C@@H]4[C@@]5(C)CC[C@H](O)C(C)(C)[C@@H]5CC[C@]43C)[C@@H]12` are 9 µg/mL (≈ 16.2 µM), 9 µg/mL (≈ 16.2 µM) and 20 Dilution factor.
Consider `C=C(C)[C@@H]1CC[C@]2(C(=O)N[C@@H](Cc3ccc(O)cc3)C(=O)OC)CC[C@]3(C)[C@H](CC[C@@H]4[C@@]5(C)CC[C@H](O)C(C)(C)[C@@H]5CC[C@]43C)[C@@H]12`, for which the EC50 in the series on KB and in the series on SK-MEL-2 was over 20 µg/mL throughout.
With `C=C(C)[C@@H]1CC[C@]2(C(=O)N[C@@H](CCSC)C(=O)O)CC[C@]3(C)[C@H](CC[C@@H]4[C@@]5(C)CC[C@H](O)C(C)(C)[C@@H]5CC[C@]43C)[C@@H]12`, the EC50 is over 20 µg/mL in the series on KB and 9 µg/mL (≈ 15.3 µM) in the series on SK-MEL-2. Also, the S in series [1] is listed as 5 Dilution factor.
With `C=C(C)[C@@H]1CC[C@]2(C(=O)N[C@@H](CC(=O)O)C(=O)O)CC[C@]3(C)[C@H](CC[C@@H]4[C@@]5(C)CC[C@H](O)C(C)(C)[C@@H]5CC[C@]43C)[C@@H]12`, the EC50 with KB and with SK-MEL-2 was over 20 µg/mL in each case.
Turning to `C=C(C)[C@@H]1CC[C@]2(C(=O)N[C@@H](CC(C)C)C(=O)OC)CC[C@]3(C)[C@H](CC[C@@H]4[C@@]5(C)CC[C@H](O)C(C)(C)[C@@H]5CC[C@]43C)[C@@H]12`, the EC50 in the series with KB was over 20 µg/mL; in the series with SK-MEL-2, 6.2 µg/mL (≈ 10.6 µM). The S in series [1] is recorded as 5 Dilution factor.
On to `C=C(C)[C@@H]1CC[C@]2(C(=O)N[C@@H](CCSC)C(=O)OC)CC[C@]3(C)[C@H](CC[C@@H]4[C@@]5(C)CC[C@H](O)C(C)(C)[C@@H]5CC[C@]43C)[C@@H]12`, for which the EC50 in the series on KB is over 20 µg/mL; in the series with SK-MEL-2, 12.8 µg/mL (≈ 21.3 µM). This compound also displayed a S in series [1] of 5 Dilution factor.
For the compound `C=C(C)[C@@H]1CC[C@]2(C(=O)N[C@@H](CCC(=O)OC)C(=O)OC)CC[C@]3(C)[C@H](CC[C@@H]4[C@@]5(C)CC[C@H](O)C(C)(C)[C@@H]5CC[C@]43C)[C@@H]12`, the figures for the EC50 with KB and in the series with SK-MEL-2 were over 20 µg/mL and 15.3 µg/mL (≈ 24.9 µM), respectively. The same compound gave a S in series [1] of 20 Dilution factor.
For `C=C(C)[C@@H]1CC[C@]2(C(=O)N[C@@H](Cc3ccccc3)C(=O)O)CC[C@]3(C)[C@H](CC[C@@H]4[C@@]5(C)CC[C@H](O)C(C)(C)[C@@H]5CC[C@]43C)[C@@H]12`, the EC50 with KB and in the series with SK-MEL-2 was over 20 µg/mL in each case.
Consider `C=C(C)[C@@H]1CC[C@]2(C(=O)N3CCC[C@H]3C(=O)OC)CC[C@]3(C)[C@H](CC[C@@H]4[C@@]5(C)CC[C@H](O)C(C)(C)[C@@H]5CC[C@]43C)[C@@H]12`, for which the EC50 with KB and in the series on SK-MEL-2 was over 20 µg/mL in each case.
In the case of `C=C(C)[C@@H]1CC[C@]2(C(=O)N[C@@H](C)C(=O)O)CC[C@]3(C)[C@H](CC[C@@H]4[C@@]5(C)CC[C@H](O)C(C)(C)[C@@H]5CC[C@]43C)[C@@H]12`, the EC50 was 4.6 µg/mL (≈ 8.72 µM) with KB and 1.5 µg/mL (≈ 2.84 µM) in the series with SK-MEL-2. This compound also came in with a S in series [1] of 50 Dilution factor.
As to `C=C(C)[C@@H]1CC[C@]2(C(=O)N[C@@H](Cc3ccc(O)cc3)C(=O)O)CC[C@]3(C)[C@H](CC[C@@H]4[C@@]5(C)CC[C@H](O)C(C)(C)[C@@H]5CC[C@]43C)[C@@H]12`, the EC50 with KB and in the series with SK-MEL-2 was over 20 µg/mL throughout.
Turning to `C=C(C)[C@@H]1CC[C@]2(C(=O)N[C@H](C(=O)OC)C(C)C)CC[C@]3(C)[C@H](CC[C@@H]4[C@@]5(C)CC[C@H](O)C(C)(C)[C@@H]5CC[C@]43C)[C@@H]12`, the EC50 was over 20 µg/mL in the series on KB and 2.1 µg/mL (≈ 3.69 µM) in the series with SK-MEL-2. This compound also had a S in series [1] of 5 Dilution factor.
Turning to `C=C(C)[C@@H]1CC[C@]2(C(=O)N[C@@H](Cc3c[nH]c4ccccc34)C(=O)O)CC[C@]3(C)[C@H](CC[C@@H]4[C@@]5(C)CC[C@H](O)C(C)(C)[C@@H]5CC[C@]43C)[C@@H]12`, the EC50 is over 20 µg/mL in the series on KB and 8.6 µg/mL (≈ 13.4 µM) in the series with SK-MEL-2. Moreover, the S in series [1] is given as 10 Dilution factor.
For the compound `C=C(C)[C@@H]1CC[C@]2(C(=O)N[C@@H](CC(C)C)C(=O)O)CC[C@]3(C)[C@H](CC[C@@H]4[C@@]5(C)CC[C@H](O)C(C)(C)[C@@H]5CC[C@]43C)[C@@H]12`, the EC50 with KB was over 20 µg/mL; in the series with SK-MEL-2, 9 µg/mL (≈ 15.8 µM). Also, the S in series [1] was found to be 10 Dilution factor.
For `C=C(C)[C@@H]1CC[C@]2(C(=O)N[C@@H](C)C(=O)OC)CC[C@]3(C)[C@H](CC[C@@H]4[C@@]5(C)CC[C@H](O)C(C)(C)[C@@H]5CC[C@]43C)[C@@H]12`, the EC50 is over 20 µg/mL in the series with KB and 3.5 µg/mL (≈ 6.46 µM) with SK-MEL-2. The compound further returned a S in series [1] of 30 Dilution factor.
Take `C=C(C)[C@@H]1CC[C@]2(C(=O)NCC(=O)O)CC[C@]3(C)[C@H](CC[C@@H]4[C@@]5(C)CC[C@H](O)C(C)(C)[C@@H]5CC[C@]43C)[C@@H]12`: the EC50 in the series with KB is over 20 µg/mL; with SK-MEL-2 it was 4.2 µg/mL (≈ 8.17 µM). This compound also returned a S in series [1] of 100 Dilution factor.
The corresponding values for `C=C(C)[C@@H]1CC[C@]2(C(=O)O)CC[C@]3(C)[C@H](CC[C@@H]4[C@@]5(C)CC[C@H](O)C(C)(C)[C@@H]5CC[C@]43C)[C@@H]12` [BETULINIC ACID] are over 20 µg/mL, 4.2 µg/mL (≈ 9.2 µM) and under 5 Dilution factor.
